Tests used:
diet induced obese rats = experiment: Anti-obese activity in diet induced obese rats (treatment after 8 weeks high fat diet); assay type: in vivo, Sprague-Dawley rats; conditions: 7 mg/kg per day oral, vs untreated control group
Experimental: Selected healthy Sprague-Dawley rats were randomly assigned for control or various treatment groups (n=6). All the animals allocated for the study were made obese through dietary intervention by feeding high fat diet ad libitum for 8 weeks. After 8 weeks, the treatment group of animals was given oral administration of 250 mg/kg of Piper betle 60% methanol extract per day in 10 mL of 0.5% CMC, using gastric tube for 8 week study duration. The control group of animals was given 10 ml/kg of 0.5% CMC. The animals of positive control group were given 7 mg/kg sibutramine per day in 10 mL of 0.5% CMC. Food and water consumptions were recorded daily, body weights were recorded weekly and fasting blood samples were collected before initiation, after 4th week and 8th week (termination) of the study.
Selected healthy Sprague-Dawley rats were randomly assigned to control or various treatment groups (n=6). All the animals allocated for the study were made obese through dietary intervention by feeding high fat diet ad libitum for 8 weeks. […] Food and water consumption were recorded daily, body weights were recorded weekly and fasting blood samples were collected before initiation, after 4th week and 8th week (termination) of the study.

[1] = test system: diet induced obesity in rats; experiment: Protective effect against diet induced obesity in rats (treatment simultaneous with high fat diet); assay type: in vivo, Sprague-Dawley rats; conditions: 7 mg/kg per day oral, 8 weeks, vs untreated control group
Experimental: Selected healthy Sprague-Dawley rats were randomly assigned to control or various treatment groups (n=6). All the animals allocated for protective phase of the study were on dietary intervention by feeding high fat diet ad libitum and the animals allocated to treatment groups were simultaneously given oral administration of 250 mg/kg Piper betle hydroalcohol extract per day in 10 mL of 0.5% CMC, using gastric tube for the entire 8 week study duration. The test animals of the control group were simultaneously given 10 ml/kg 0.5% CMC. The animals of positive control group were given 7 mg/kg sibutramine in 10 mL of 0.5% CMC. Food and water consumptions were recorded daily, body weights were recorded weekly and fasting blood samples were collected before initiation, after 4th week and 8th week (termination) of the study. […] Upon administration of Piper betle alcohol extract for a period of 60 days, the level of triglyceride in the obese rats was reduced by 33%. The levels of serum cholesterol and LDL were reduced by 22% and 23% respectively, whereas the level of HDL was increased by 11%.
Selected healthy Sprague-Dawley rats were randomly assigned to control or various treatment groups (n=6). […] Food and water consumption were recorded daily, body weights were recorded weekly and fasting blood samples were collected before initiation, after 4th week and 8th week (termination) of the study. […]

CC(C)CC(N(C)C)C1(c2ccc(Cl)cc2)CCC1 (centres unmarked) [sibutramine]
reduction in mean body weight gain (diet induced obese rats): ~87% | reduction (protection) in weight gain [1]: 44.4%
